Entries after “also recorded” stand apart in the source; their conditions may differ. Read-outs that look alike come from different tables or passages of the source.
Assays:
[1] = system: bloodstream forms of T. b. brucei Lister 427; experiment: Resazurin reduction growth inhibition assay against bloodstream forms of T. b. brucei; format: cell-based, Trypanosoma brucei brucei; settings: 72 hours, read-out: IC50 ± SD (µM) T. b. b.
Procedure: Bloodstream forms of T. b. brucei Lister 427, a virulent laboratory strain of Trypanosoma brucei were cultured in HMI-9 medium as previously described. […] The resulting signal measured between 570 nm and 590 nm, is directly proportional to the quantity of viable parasites. […] After incubation, a working solution of resazurin (0.15 mg/mL in DPBS) was added to the plates in a 1:10 (v/v) ratio, followed by incubation for 4 hours at 37 °C with 5% CO2. Fluorescence was measured using an Infinite M200 microplate reader (Tecan) at excitation and emission wavelengths of 530 nm and 590 nm, respectively. Compound achieving ≥ 50% inhibition of trypanosomes were selected for further dose-response studies.
Compounds that adhered to the cutoff criterion (≥ 50% inhibition) were serially diluted and tested for their half-maximal inhibitory concentrations (IC50). […] Dose-response curves were generated using GraphPad Prism software (version 8.0). […]
Data were analysed using Microsoft Excel and GraphPad Prism 8.0. Nonlinear regression with a sigmoidal dose-response fit model was applied to the data to determine IC50 and CC50 values.

[2] = Cytotoxicity, resazurin reduction assay, Vero; format: cell-based; settings: African green monkey
Procedure: (§1) For cytotoxicity testing, they were seeded (90 µL) in 96-well plates at a density of 1x10^4 cells/well, in duplicate, and allowed to adhere overnight. […] Cell viability was then assessed using the resazurin reduction assay, as described above. […] Data were analysed using Microsoft Excel and GraphPad Prism 8.0. Nonlinear regression with a sigmoidal dose-response fit model was applied to the data to determine IC50 and CC50 values. Results represent the mean ± standard deviation (SD) from two independent experiments performed in duplicate.

[3] = system: bloodstream forms of T. b. brucei; experiment: Rescue experiment (4 h exposure, washout, drug-free medium); format: cell-based, Trypanosoma brucei brucei; settings: 72 hours monitoring, 4xIC50 and 8xIC50
Procedure: (§2) To evaluate the killing kinetics of selected compounds, bloodstream forms of T. b. brucei (2 x 10⁵ cells/mL) were incubated in normal culture conditions in the presence of compounds at 8IC50, 4IC50, IC50, and 0.25IC50 concentrations in 24-well plates. Upon incubation, cultures were centrifuged at 0, 4, 8, 12, 24, 30, 36, 48, 60, and 72 hours’ time intervals at 2,500 rpm followed by motile trypanosomes enumeration using a Lumascope LS520 inverted microscope. To determine the mode of inhibition (parasitostatic or parasiticidal), a rescue experiment was conducted. Trypanosomes were exposed to the test doses (8IC50, 4IC50, IC50, and 0.25IC50) of the compounds for 4 hours. They were then washed three times with phosphate buffer saline (DPBS 1X), centrifuged at 2,500 rpm for 7 minutes, and resuspended in complete drug-free medium. These parasites were cultured under the same conditions, and motile organisms were enumerated with the Neubauer chamber at regular intervals over 72 hours. Data were plotted using GraphPad Prism 8.0 to determine the inhibition kinetics and classify the inhibitors as cidal or static. Pentamidine isethionate served as the reference compound and experiments were performed in duplicate.

[4] = biological target: TANK-binding kinase 1 (TBK1); design: method as in ref 37 = [37]; 37 Dorsch D , Wucherer-Plietker M , Mueller TJ , Merkul E . 3-([1,2,3]triazole-4-yl)-pyrrolo[2,3-b]pyridine derivates . World Intellectual Property Organization . 2010 . https://patents.google.com/pat; settings: cited from earlier work
[5] = Cytotoxicity, resazurin reduction assay, Raw264.7; format: cell-based, murine; settings: mouse
Procedure: as §1

normal cells = system: normal cells; design: method as in ref 37 = [37]; 37 Dorsch D , Wucherer-Plietker M , Mueller TJ , Merkul E . 3-([1,2,3]triazole-4-yl)-pyrrolo[2,3-b]pyridine derivates . World Intellectual Property Organization . 2010 . https://patents.google.com/pat; settings: cited from earlier work
[6] = Cytotoxicity, resazurin reduction assay, HepG2; format: cell-based, human; settings: human
Procedure: Vero E6 (African green monkey kidney), Raw264.7 (murine macrophages) and HepG2 (human hepatocyte carcinoma) cell lines, sourced from the American Type Culture Collection, were cultured in DMEM supplemented with 10% (v/v) heat-inactivated fetal bovine serum, 1% (v/v) non-essential amino acids, and 1% (v/v) penicillin-streptomycin. Cells were maintained at 37 °C in a 5% CO2 atmosphere. For cytotoxicity testing, they were seeded (90 µL) in 96-well plates at a density of 1x10^4 cells/well, in duplicate, and allowed to adhere overnight. Serial dilutions (50-0.08 µM) of the compounds were prepared, and 10 µL of each were incubated with the monolayer for 48 hours. Podophyllotoxin was tested as a positive control at 10 μM and 0.5% DMSO (100% cell viability) was used as negative control. Cell viability was then assessed using the resazurin reduction assay, as described above. The 50% cytotoxic concentration (CC50) was calculated using GraphPad Prism software (version 8.0), and selectivity indices (SIs) were determined by dividing the […].
Data were analysed using Microsoft Excel and GraphPad Prism 8.0. Nonlinear regression with a sigmoidal dose-response fit model was applied to the data to determine IC50 and CC50 values. Results represent the mean ± standard deviation (SD) from two independent experiments performed in duplicate.

[7] = system: bloodstream forms of T. b. brucei; experiment: Trypanosome killing kinetics (time-kill assay); format: cell-based, Trypanosoma brucei brucei; settings: 8IC50, 4IC50, IC50, 0.25IC50; over 72 hours
Procedure: as §2

[8] = HAT regimens; cited from earlier work

Row | Compound | IC50 ([1]; Trypanosoma brucei, 72 h, confirmation screen, powdered form) [µM] | IC50 ([1]; Trypanosoma brucei, 72 h, primary screen, DMSO stock solution, bloodstream form T. b. brucei Lister 427) [µM] | IC50 ([1]; primary screen, DMSO stock solution, bloodstream form T. b. brucei Lister 427) [µM] | CC50 at 48 h [2] [µM] | effect after short exposure and washout (reversible or irreversible) [3] | IC50 [4] [µM] | CC50 at 48 h [5] [µM] | CC50 (normal cells) [µM] | CC50 at 48 h [6] [µM] | activity profile in time-kill assay (trypanocidal or cytostatic) [7] | fatal encephalopathy, percentage of cases [8]
1 | Cn1cc(-c2cnc3[nH]cc(-c4cn(Cc5cccc(F)c5F)nn4)c3c2)cn1 [OGHL00169, 3-(1-(2,3-difluorobenzyl)-1H-1,2,3-triazol-4-yl)-5-(1-methyl-1H-pyrazol-4-yl)-1H-pyrrolo[2,3-b]pyridine] | 0.25 ± 0.04 | ≤ 1 | 0.85 ± 0.02 | 2.8 ± 0.03 | irreversible trypanocidal activity; also recorded: irreversible trypanocidal effects | 0.000196 | 12.1 ± 1.6 | 1 to 10 | 50 | strong trypanocidal activity | 
2 | Nc1nc(N)nc(Nc2ccc([As]3SCC(CO)S3)cc2)n1 (centres unmarked) [melarsoprol] |  |  |  |  |  |  |  |  |  |  | 5–10%
